Measured values published in patent US11352320B2 (Merck Sharp & Dohme Corp., priority 2018, dated 2022).
Counter-ions that a name gives are not always drawn.

target: T1, IDO1 (Homo sapiens, UniProt P14902); assay: IDO1 Human Whole Blood Assay; format: cell-based; conditions: LPS and IFNγ 100 ng/mL, 18 h, kynurenine by LC/MS/MS
Procedure: IDO1 Human Whole Blood Assay
Compounds to be tested were serially diluted in ten 3-fold steps in DMSO starting from 10 mM. 3 μL of compound dilutions or DMSO alone were then dispensed from the dilution plate into a polypropylene 96-well assay plate containing 97 μL of RPMI medium using an Echo 555 acoustic liquid handler (Labcyte). LPS and IFNγ was prepared in RPMI medium to a 10× of final conc. (1000 ng/mL), final concentration is 100 ng/mL.
Two hundred forty μL of blood was transferred to each of the wells of a v-bottom 96 well plate. Thirty μL of compound was transferred from intermediate dilution plate, and incubated for 15 min. Thirty μL from stimulants was then transferred to blood and mixed thoroughly. Plate was covered with breathable membrane and incubated at 37° C. for overnight (18 h).
On day 2 isotope labeled standard of kynurenine and tryptophan was made in water at 10× concentration and 30 μL was added to the blood at 3 μM final concentration. The assay plates were centrifuged at 300×G for 10 min with no brake to separate plasma from red blood cells. Sixty μL of plasma samples was removed without disturbing red blood cells. Plasma was diluted with RPMI in 1:1 ratio and proteins were precipitated out with two volume of acetonitrile. The plates were centrifuged at 4000×G for 60 min. Twenty μL of supernatant was carefully transferred to a 384 well plate containing 40 μL of 0.1% formic acid in water and analyzed by LC/MS/MS.
LC/MS/MS analyses were performed using Thermo Fisher's LX4-TSQ Quantum Ultra system. This system consists of four Agilent binary high-performance liquid chromatography (HPLC) pumps and a TSQ Quantum Ultra triple quadruple MS/MS instrument. For each sample, 5 μL were injected onto an Atlantis T3 column (2.1 mm×150 mm, 3 μm particle size) from Waters. The mobile phase gradient pumped at 0.8 mL/min was used to elute the analytes from the column at 25° C. […] Compounds were titrated and IC50's were calculated by 4 parameter sigmoidal curve fitting formula. […]

T1 sequence (P14902 whole entry): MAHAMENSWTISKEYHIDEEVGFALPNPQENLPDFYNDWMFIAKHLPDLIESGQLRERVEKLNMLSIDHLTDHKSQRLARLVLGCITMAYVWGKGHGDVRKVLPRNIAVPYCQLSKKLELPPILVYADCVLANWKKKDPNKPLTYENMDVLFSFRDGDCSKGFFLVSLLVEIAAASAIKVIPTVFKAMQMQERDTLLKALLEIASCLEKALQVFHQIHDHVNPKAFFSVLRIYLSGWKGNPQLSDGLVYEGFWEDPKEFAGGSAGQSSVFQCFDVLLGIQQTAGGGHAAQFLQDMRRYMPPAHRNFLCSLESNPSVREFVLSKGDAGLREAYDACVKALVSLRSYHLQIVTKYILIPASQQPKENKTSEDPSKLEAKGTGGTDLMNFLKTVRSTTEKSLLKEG

Which IC50 does the source give for CC(C(=O)Nc1ccc(F)cc1)C12CC(Nc3ncnc4ccccc34)(C1)C2 (single isomer, unassigned) [Example 5, N-(4-fluorophenyl)-2-(3-(quinazolin-4-ylamino)bicyclo[1.1.1]pentan-1-yl)propanamide] here?
The IC50 was 543 nM.

For CC(C(=O)Nc1ccc(F)cc1)C12CC(Nc3ncnc4ccc(F)cc34)(C1)C2 (single isomer, unassigned) [Example 11, N-(4-fluorophenyl)-2-(3-((6-fluoroquinazolin-4-yl)amino)bicyclo[1.1.1]pentan-1-yl)propanamide], which IC50 is on record?
Its IC50 is 378 nM.

For C[C@H](C(=O)Nc1ccc(F)cc1)C12CC(N(C)Cc3cccc(Cl)c3)(C1)C2 [Example 29, (S)-2-(3-((3-chlorobenzyl)(methyl)amino)bicyclo[1.1.1]pentan-1-yl)-N-(4-fluorophenyl)propanamide, TFA], which IC50 is on record?
Its IC50 is 625 nM.

target: T1, IDO1; assay: IDO1 Cellular Assay in Hela Cells Stimulated with IFNγ; format: cell-based; design: endogenous in cells; host or cells: HeLa cells stimulated with IFNγ; conditions: IFNγ 100 ng/mL, 300 uM L-tryptophan, about 48 hours, fluorescence readout, read-out: IDO1 HELA Cell Assay, IC50
Procedure: Biological Assays IDO1 Cellular Assay in Hela Cells Stimulated with IFNγ
Hela cells were cultured in complete Hela culture medium (90% EMEM, 10% heat-inactivated fetal bovine serum) and expanded to about 1×10^9 cells. The cells were then collected and frozen down at 1×10^7 cells/vial in 1 mL frozen medium (90% complete Hela culture medium, 10% DMSO)
Compounds to be tested were serially diluted in ten 3-fold steps in DMSO starting from 10 mM DMSO stocks in Echo low volume plate(s). Compound dilutions or DMSO alone were then dispensed from the dilution plate(s) into Greiner black 384-well assay plate(s) (catalog #781086, 50 nL/well) using an Echo 550 acoustic liquid handler (Labcyte).
Frozen Hela cells were thawed and transferred into Hela assay medium (99% complete Hela culture medium, 1% Pen/Strep) with 20 mL medium/vial of cells. The cells were spun down at 250 g in a table top centrifuge for 5 min and suspended in same volume of Hela assay medium. The cells were then counted and adjusted to a density of 2×10^5 cells/ml in Hela assay medium. Sterile L-tryptophan were added to the cells with final concentration of 300 uM L-tryptophan. A small aliquot (2 mL/plate) of Hela cells were set aside and were not treated with IFNγ, to serve as the Max-E control. The rest of Hela cells were added with sterile IFNγ (Cat #285-IF, R & D systems) with a final concentration of 100 ng/mL.
Hela cells with and without IFNγ were dispensed to the respective wells of 384-well assay plates containing the compounds. The plates were incubated for about 48 hours at a 37° C., 5% CO2 incubator. Afterwards, 12 μL of 0.5 M methyl isonipecotate in dimethyl sulfoxide were added into each well and the plates were sealed and incubated at 37° C. without CO2 overnight. The plates were centrifuged for 1 min at 200×g. The resulting fluorescence was measured in a Spectramax plate reader (Molecular Devices) with a 400 nm excitation filter and a 510 nm emission filter.
The fluorescence intensity of each well was corrected for the background observed in wells with non-IFNγ-treated cells and was expressed as a fraction of the intensity observed in wells of IFNγ-treated cells and DMSO only. Potencies were calculated by linear least squares fit to the four parameter logistic IC50 equation.
Compounds disclosed herein generally have IC50 of about 1 nM to about 1,000 nM, or more specifically, about 2 nM to about 800 nM, or more specifically, about 5 nM to about 600 nM, or still more specifically, about 10 nM to about 500 nM. Such a result is indicative of the intrinsic activity of the compounds in use as an inhibitor of an IDO enzyme.

How did the IC50 turn out when CC(C(=O)Nc1ccc(F)cc1)C12CC(Nc3ncnc4ccccc34)(C1)C2 (single isomer, unassigned) [Example 5, N-(4-fluorophenyl)-2-(3-(quinazolin-4-ylamino)bicyclo[1.1.1]pentan-1-yl)propanamide] was run?
The IC50 was 5.38 nM.

With CC(C(=O)Nc1ccc(F)cc1)C12CC(Nc3ncnc4ccc(F)cc34)(C1)C2 (single isomer, unassigned) [Example 11, N-(4-fluorophenyl)-2-(3-((6-fluoroquinazolin-4-yl)amino)bicyclo[1.1.1]pentan-1-yl)propanamide] as the compound, how does the IC50 read?
Its IC50 is 3.23 nM.

For CC(C(=O)Nc1ccc(F)cc1)C12CC(Nc3nccc(C(F)(F)F)c3C#N)(C1)C2 (stereo not shown) [Example 17, 2-(3-{[3-cyano-4-(trifluoromethyl)pyridin-2-yl]amino}bicyclo[1.1.1]pentan-1-yl)-N-(4-fluorophenyl]propanamide], which IC50 is on record?
The IC50 was 27.2 nM.

With CC(C(=O)Nc1ccc(F)cc1)C12CC(Nc3cc(C(F)(F)F)ccn3)(C1)C2 (stereo not shown) [Example 18, N-(4-fluorophenyl)-2-(3-{[4-(trifluoromethyl)pyridin-2-yl]amino}bicyclo[1.1.1]pentan-1-yl)propanamide] as the compound, how does the IC50 read?
The IC50 was 173 nM.

Which IC50 does the source give for CC(C(=O)Nc1ccc(F)cc1)C12CC(Nc3c(C(F)(F)F)ccnc3F)(C1)C2 (stereo not shown) [Example 19, N-(4-fluorophenyl)-2-(3-{[2-fluoro-4-(trifluoromethyl)pyridin-3-yl]amino}bicyclo[1.1.1]pentan-1-yl)propanamide] here?
Its IC50 is 11.9 nM.

How did the IC50 turn out when CC(C(=O)Nc1ccc(F)cc1)C12CC(Nc3ncccc3C(F)(F)F)(C1)C2 (stereo not shown) [Example 20, N-(4-fluorophenyl)-2-(3-{[3-(trifluoromethyl)pyridin-2-yl]amino}bicyclo[1.1.1]pentan-1-yl)propanamide] was run?
The IC50 was 543 nM.

CC(C(=O)Nc1ccc(F)cc1)C12CC(Nc3nccnc3C(F)(F)F)(C1)C2 (stereo not shown) [Example 21, N-(4-fluorophenyl)-2-(3-{[3-(trifluoromethyl)pyrazin-2-yl]amino}bicyclo[1.1.1]pentan-1-yl)propanamide] was tested. Which IC50 did it give?
The IC50 was 454 nM.

CC(C(=O)Nc1ccc(F)cc1)C12CC(Nc3ncc(C(F)(F)F)cc3F)(C1)C2 (stereo not shown) [Example 22, N-(4-fluorophenyl)-2-(3-{[3-fluoro-5-(trifluoromethyl)pyridin-2-yl]amino}bicyclo[1.1.1]pentan-1-yl)propanamide] was tested. Which IC50 did it give?
The IC50 was 166 nM.

How did the IC50 turn out when CC(C(=O)Nc1ccc(F)cc1)C12CC(Nc3nncc4ccccc34)(C1)C2 (stereo not shown) [Example 23, N-(4-fluorophenyl)-2-{3-[(phthalazin-1-yl)amino]bicyclo[1.1.1]pentan-1-yl}propanamide] was run?
The IC50 was 183 nM.

For CC(C(=O)Nc1ccc(F)cc1)C12CC(Nc3ccnc(C(F)(F)F)c3)(C1)C2 (stereo not shown) [Example 24, N-(4-fluorophenyl)-2-(3-{[2-(trifluoromethyl)pyridin-4-yl]amino}bicyclo[1.1.1]pentan-1-yl)propanamide], which IC50 is on record?
Its IC50 is 12.6 nM.

With CC(C(=O)Nc1ccc(F)cc1)C12CC(Nc3ccnc(C(F)(F)F)n3)(C1)C2 (stereo not shown) [Example 25, N-(4-fluorophenyl)-2-(3-{[2-(trifluoromethyl)pyrimidin-4-yl]amino}bicyclo[1.1.1]pentan-1-yl)propanamide] as the compound, how does the IC50 read?
Its IC50 is 94.1 nM.

For CC(C(=O)Nc1ccc(F)cc1)C12CC(Nc3cccc(C(F)(F)F)n3)(C1)C2 (stereo not shown) [Example 26, N-(4-fluorophenyl)-2-(3-{[6-(trifluoromethyl)pyridin-2-yl]amino}bicyclo[1.1.1]pentan-1-yl)propanamide], which IC50 is on record?
The IC50 was 74.3 nM.

C[C@H](C(=O)Nc1ccc(F)cc1)C12CC(Nc3ccnc(C(F)(F)F)c3)(C1)C2 [Example 27, (S)—N-(4-fluorophenyl)-2-(3-((2-(trifluoromethyl)pyridin-4-yl)amino)bicyclo[1.1.1]pentan-1-yl)propanamide] was tested. Which IC50 did it give?
The IC50 was 4.83 nM.

With C[C@H](C(=O)Nc1ccc(F)cc1)C12CC(NCc3cccc(Cl)c3)(C1)C2 [Example 28, (S)-2-(3-((3-chlorobenzyl)amino)bicyclo[1.1.1]pentan-1-yl)-N-(4-fluorophenyl)propanamide, TFA] as the compound, how does the IC50 read?
Its IC50 is 25.7 nM.

C[C@H](C(=O)Nc1ccc(F)cc1)C12CC(N(C)Cc3cccc(Cl)c3)(C1)C2 [Example 29, (S)-2-(3-((3-chlorobenzyl)(methyl)amino)bicyclo[1.1.1]pentan-1-yl)-N-(4-fluorophenyl)propanamide, TFA] was tested. Which IC50 did it give?
Its IC50 is 5.6 nM.

How did the IC50 turn out when C[C@H](C(=O)Nc1ccc(F)cc1)C12CC(NCc3cccc(C(F)(F)F)c3)(C1)C2 [Example 30, (S)-N-(4-fluorophenyl)-2-(3-((3-(trifluoromethyl)benzyl)amino)bicyclo[1.1.1]pentan-1-yl)propanamide, TFA] was run?
Its IC50 is 82.3 nM.

With C[C@H](C(=O)Nc1ccc(F)cc1)C12CC(N(C)Cc3cccc(C(F)(F)F)c3)(C1)C2 [Example 31, (S)-N-(4-fluorophenyl)-2-(3-(methyl(3-(trifluoromethyl)benzyl)amino)bicyclo[1.1.1]pentan-1-yl)propanamide, TFA] as the compound, how does the IC50 read?
The IC50 was 15.1 nM.

With C[C@H](C(=O)Nc1ccc(F)cc1)C12CC(NCc3ccc(Cl)c(Cl)c3)(C1)C2 [Example 32, (S)-2-(3-((3,4-dichlorobenzyl)amino)bicyclo[1.1.1]pentan-1-yl)-N-(4-fluorophenyl)propanamide, TFA] as the compound, how does the IC50 read?
Its IC50 is 51.3 nM.

With C[C@H](C(=O)Nc1ccc(F)cc1)C12CC(N(C)Cc3ccc(Cl)c(Cl)c3)(C1)C2 [Example 33, (S)-2-(3-((3,4-dichlorobenzyl)(methyl)amino)bicyclo[1.1.1]pentan-1-yl)-N-(4-fluorophenyl)propanamide, TFA] as the compound, how does the IC50 read?
Its IC50 is 8.86 nM.
